Experimental data published in US20100227859A1, “TRICYCLIC COMPOUNDS AS MATRIX METALLOPROTEINASE INHIBITORS” (priority 2007, published 2010).

The compounds below were run against purified human MMP-12 enzyme (Homo sapiens, UniProt P39900) (assay: MMP-12 FRET assay). Conditions: substrate 20 μM, room temperature.
Format: biochemical
Protocol: Compounds according to the present teachings were tested in an MMP-12 FRET assay as follows. To each well of black polystyrene 96-well plate was added assay buffer (50 mM HEPES (pH 7.4), 100 mM NaCl, 5 mM CaCl2 and 0.005% Brij-35 (Polyoxyethyleneglycol dodecyl ether, Pierce cat#20150), purified human MMP-12 enzyme, and varied concentrations of test compounds (prepared by serial dilution of a stock solution in 100% DMSO). The plates were incubated at room temperature for 30 minutes. The enzymatic reactions were initiated by addition of a substrate, MCA-Pro-Leu-Gly-Leu-Dpa(DNP)-Ala-Arg, containing a fluorescent group (7-methoxycoumarin, MCA) and a 2,4-dinitrophenyl group (DNP), to a final concentration of 20 μM. The final DMSO concentration in the assay was 10%. The reaction was monitored for 30 minutes at room temperature and the initial rate of the cleavage reaction was determined using a fluorescence plate reader (λex: 325 nm, λem: 395 nm). Plots of the inhibitor concentration vs. the initial cleavage rate were fit to the following equation: y=Vmax*(1−(x^n/(K^n+x^n))), whereby x=inhibitor concentration, y=initial rate, Vmax=initial rate in the absence of inhibitor, n=slope factor, and K=IC50 for the inhibition curve.

Sequence of purified human MMP-12 enzyme (P39900 106-470): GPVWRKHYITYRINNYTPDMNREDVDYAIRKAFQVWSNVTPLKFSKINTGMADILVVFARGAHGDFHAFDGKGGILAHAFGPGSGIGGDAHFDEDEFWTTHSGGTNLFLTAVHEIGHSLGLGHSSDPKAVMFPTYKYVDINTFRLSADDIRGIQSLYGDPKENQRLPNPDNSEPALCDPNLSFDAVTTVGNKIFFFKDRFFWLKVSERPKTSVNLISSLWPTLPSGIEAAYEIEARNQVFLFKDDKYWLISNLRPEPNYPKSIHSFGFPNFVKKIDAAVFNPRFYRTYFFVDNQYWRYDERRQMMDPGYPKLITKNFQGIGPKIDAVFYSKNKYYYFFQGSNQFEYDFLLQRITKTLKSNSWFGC

| IC50 [nM] | SMILES |
| --- | --- |
| 93 | CCc1ccc(-c2cc(-c3ccc4c(c3)oc3cc(S(=O)(=O)N[C@H](C(=O)O)C(C)C)ccc34)sc2CC)s1 [Compound 166, (S)-2-(7-(2′,5-diethyl-2,3′-bithiophen-5′-yl)dibenzo[b,d]furan-3-sulfonamido)-3-methylbutanoic acid] |
| < 1.5 | CC(C)[C@H](NS(=O)(=O)c1ccc2c(c1)oc1ccc(-c3ccc(F)s3)cc12)C(=O)O [Compound 124, (S)-2-(8-(5-fluorothiophen-2-yl)dibenzo[b,d]furan-3-sulfonamido)-3-methylbutanoic acid] |
| < 1.5 | CC(C)[C@H](NS(=O)(=O)c1ccc2c(c1)oc1ccc(-c3nc4ccc(F)cc4s3)cc12)C(=O)O [Compound 209, (S)-2-(8-(6-fluorobenzo[d]thiazol-2-yl)dibenzo[b,d]furan-3-sulfonamido)-3-methylbutanoic acid] |
| 2.9 | CC(=O)c1ccc(-c2ccc3sc4cc(S(=O)(=O)N[C@H](C(=O)O)C(C)C)ccc4c3c2)s1 [Compound 47, (S)-2-(8-(5-acetylthiophen-2-yl)dibenzo[b,d]thiophene-3-sulfonamido)-3-methylbutanoic acid] |
| 170 | Cc1nc(-c2ccccc2)sc1-c1ccc2oc3cc(S(=O)(=O)N[C@H](C(=O)O)C(C)C)ccc3c2c1 [Compound 163, (S)-3-methyl-2-(8-(4-methyl-2-phenylthiazol-5-yl)dibenzo[b,d]furan-3-sulfonamido)butanoic acid] |
| < 1.5 | Cc1nc(C)c(-c2ccc3oc4cc(S(=O)(=O)N[C@H](C(=O)O)C(C)C)ccc4c3c2)s1 [Compound 201, (S)-2-(8-(2,4-dimethylthiazol-5-yl)dibenzo[b,d]furan-3-sulfonamido)-3-methylbutanoic acid] |
| 32 | CC(C)c1nc(-c2ccc3c(c2)oc2cc(S(=O)(=O)N[C@H](C(=O)O)C(C)C)ccc23)no1 [Compound 154, (S)-2-(7-(5-isopropyl-1,2,4-oxadiazol-3-yl)dibenzo[b,d]furan-3-sulfonamido)-3-methylbutanoic acid] |
| 700 | Cc1noc(C)c1-c1ccc2sc3cc(S(=O)(=O)N[C@H](C(=O)O)C(C)C)ccc3c2c1 [Compound 27, (S)-2-(8-(3,5-dimethylisoxazol-4-yl)dibenzo[b,d]thiophene-3-sulfonamido)-3-methylbutanoic acid] |
| < 1.5 | CC(C)[C@H](NS(=O)(=O)c1ccc2c(c1)oc1ccc(-c3ccsc3Cl)cc12)C(=O)O [Compound 34, (S)-2-(8-(2-chlorothiophen-3-yl)dibenzo[b,d]furan-3-sulfonamido)-3-methylbutanoic acid] |
| 5.4 | CC(C)[C@H](NS(=O)(=O)c1ccc2c(c1)oc1ccc(C3=CCNCC3)cc12)C(=O)O [Compound 70, (S)-3-methyl-2-(8-(1,2,3,6-tetrahydropyridin-4-yl)dibenzo[b,d]furan-3-sulfonamido)butanoic acid] |
| 19 | CC(C)[C@H](NS(=O)(=O)c1ccc2c(c1)oc1ccc(C(=N)Nc3ccccc3)cc12)C(=O)O [Compound 87, (S)-3-methyl-2-(8-(N-phenylcarbamimidoyl)dibenzo[b,d]furan-3-sulfonamido)butanoic acid] |
| 15 | CC(C)[C@@H](NS(=O)(=O)c1ccc2oc3cc(-c4nc5c(F)cccc5s4)ccc3c2c1)C(=O)O [Compound 299, (R)-2-(7-(4-fluorobenzo[d]thiazol-2-yl)dibenzo[b,d]furan-2-sulfonamido)-3-methylbutanoic acid] |
| < 1.5 | COc1ccc(-c2ccc3c(c2)oc2ccc(S(=O)(=O)N[C@@H](C(=O)O)C(C)C)cc23)cn1 [Compound 102, (R)-2-(7-(6-methoxypyridin-3-yl)dibenzo[b,d]furan-2-sulfonamido)-3-methylbutanoic acid] |
| 1.7 | CC(C)[C@H](NS(=O)(=O)c1ccc2c(c1)oc1ccc(-c3nc4ccc(OC(F)(F)F)cc4s3)cc12)C(=O)O [Compound 221, (S)-3-methyl-2-(8-(6-(trifluoromethoxy)benzo[d]thiazol-2-yl)dibenzo[b,d]furan-3-sulfonamido)butanoic acid] |
